Here are results for 19 compounds from ChEMBL document CHEMBL5325412, “Privileged heterocycles for DNA-encoded library design and hit-to-lead optimization” (Eur J Med Chem, 2023).

The target in one series is Prothrombin (Homo sapiens, UniProt P00734). As to the kind of experiment: Binding affinity to thrombin (unknown origin) assessed as inhibition constant.
Series [1] can be described thus: Binding affinity to Peptoid-inspired conformationally constrained oligomer (unknown origin) assessed as dissociation constant.
A further series has as its target Carbonic anhydrase 9 (Homo sapiens, UniProt Q16790). The experiment in a line: Inhibition of human recombinant carbonic anhydrase IX.
Series [2] deals with T1, 2',5'-phosphodiesterase 12 (Homo sapiens, UniProt Q6L8Q7).
T1 sequence (Q6L8Q7 whole entry): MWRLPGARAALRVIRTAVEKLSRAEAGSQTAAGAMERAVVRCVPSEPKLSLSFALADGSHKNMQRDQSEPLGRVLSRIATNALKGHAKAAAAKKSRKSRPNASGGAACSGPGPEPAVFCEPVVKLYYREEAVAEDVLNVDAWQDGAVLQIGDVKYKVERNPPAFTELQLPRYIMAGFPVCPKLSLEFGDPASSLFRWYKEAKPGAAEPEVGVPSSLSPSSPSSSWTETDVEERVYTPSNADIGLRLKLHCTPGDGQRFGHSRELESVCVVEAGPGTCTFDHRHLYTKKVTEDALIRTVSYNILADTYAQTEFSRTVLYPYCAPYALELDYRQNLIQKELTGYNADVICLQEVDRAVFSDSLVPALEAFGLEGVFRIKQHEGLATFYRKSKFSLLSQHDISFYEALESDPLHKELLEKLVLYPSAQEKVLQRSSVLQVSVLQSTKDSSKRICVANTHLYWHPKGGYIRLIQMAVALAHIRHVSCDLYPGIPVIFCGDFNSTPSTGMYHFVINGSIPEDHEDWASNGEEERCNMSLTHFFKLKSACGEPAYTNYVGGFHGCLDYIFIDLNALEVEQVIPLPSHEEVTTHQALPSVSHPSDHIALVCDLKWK
As to the kind of experiment: Binding affinity to PDE12 (unknown origin) (17 to 609 residues) assessed as inhibition constant by AMP-glo reagent based assay.

Series [3] is described as follows: Inhibition of Hepatitis C virus genotype 1a NS4B. Set-up: species or system Hepacivirus hominis.
For series [4], the target named is T2, Poly [ADP-ribose] polymerase tankyrase-1 (Homo sapiens, UniProt O95271).
T2 sequence (O95271 whole entry): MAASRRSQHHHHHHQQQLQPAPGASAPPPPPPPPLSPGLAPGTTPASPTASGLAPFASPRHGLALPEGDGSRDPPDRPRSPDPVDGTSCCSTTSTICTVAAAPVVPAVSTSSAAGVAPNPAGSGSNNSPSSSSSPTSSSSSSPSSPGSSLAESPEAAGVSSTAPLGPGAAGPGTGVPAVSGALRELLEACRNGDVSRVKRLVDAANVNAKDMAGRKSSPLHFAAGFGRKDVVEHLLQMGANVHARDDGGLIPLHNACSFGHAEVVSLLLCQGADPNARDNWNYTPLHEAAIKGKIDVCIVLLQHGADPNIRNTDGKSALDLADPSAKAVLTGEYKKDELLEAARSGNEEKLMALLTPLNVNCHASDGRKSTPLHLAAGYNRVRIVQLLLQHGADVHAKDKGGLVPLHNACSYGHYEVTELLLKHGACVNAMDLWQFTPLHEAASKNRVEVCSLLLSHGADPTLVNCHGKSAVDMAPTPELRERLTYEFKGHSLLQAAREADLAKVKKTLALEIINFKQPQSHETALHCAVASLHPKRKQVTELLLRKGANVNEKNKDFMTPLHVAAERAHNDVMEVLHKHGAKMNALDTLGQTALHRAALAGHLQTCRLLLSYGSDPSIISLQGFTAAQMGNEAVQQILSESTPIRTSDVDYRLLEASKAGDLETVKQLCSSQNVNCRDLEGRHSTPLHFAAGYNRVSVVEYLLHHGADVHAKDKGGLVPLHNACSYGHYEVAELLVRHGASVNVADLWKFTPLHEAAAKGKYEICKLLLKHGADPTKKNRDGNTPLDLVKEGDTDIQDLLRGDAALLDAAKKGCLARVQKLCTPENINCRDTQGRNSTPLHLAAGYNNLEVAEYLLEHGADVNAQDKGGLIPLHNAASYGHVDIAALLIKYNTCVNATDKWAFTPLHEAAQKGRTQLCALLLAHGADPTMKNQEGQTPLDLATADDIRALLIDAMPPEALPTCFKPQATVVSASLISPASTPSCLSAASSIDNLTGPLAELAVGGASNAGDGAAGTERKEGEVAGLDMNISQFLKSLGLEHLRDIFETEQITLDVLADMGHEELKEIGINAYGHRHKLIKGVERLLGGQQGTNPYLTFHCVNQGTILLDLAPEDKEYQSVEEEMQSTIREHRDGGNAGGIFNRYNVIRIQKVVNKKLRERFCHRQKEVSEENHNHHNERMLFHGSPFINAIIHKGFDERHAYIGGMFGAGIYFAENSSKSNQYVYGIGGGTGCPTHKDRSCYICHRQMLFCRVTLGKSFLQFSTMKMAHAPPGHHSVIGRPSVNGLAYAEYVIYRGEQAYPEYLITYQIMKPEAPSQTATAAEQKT
As to the kind of experiment: Binding affinity to TNKS1 (unknown origin) assessed as dissociation constant.

The target in a further series is CREB-binding protein (Homo sapiens, UniProt Q92793). As to the kind of experiment: Inhibition of N-terminal His-tagged CREBBP (unknown origin) expressed in Escherichia coli BL21 (DE3).
Series [5] can be described thus: Binding affinity to bacterial beta-lactamase OXA-48 expressed in Escherichia coli BL21 (DE3) using nitrocefin as substrate pre-incubated for 5 mins and measured for 20 mins by spectrometric analysis. Details: species or system Bacteria.
The target in series [6] is Quadruplex DNA. The experiment in a line: Binding affinity to c-MYC G4 quadruplex DNA (unknown origin) assessed as dissociation constant by fluorescence titration based analysis. The format is nucleic-acid assay.
Series [7] can be described thus: Inhibition of MAPK p68 (unknown origin). Details: species or system Homo sapiens.
Series [8] deals with Mitogen-activated protein kinase 10 (Homo sapiens, UniProt P53779). As to the kind of experiment: Binding affinity to JNK3 (unknown origin) assessed as inhibition constant.
Series [9] addresses Quadruplex DNA. As to the kind of experiment: Binding affinity to c-MYC G4- quadruplex DNA Pu22 (unknown origin) assessed as inhibition constant by SPR analysis. The format is nucleic-acid assay.
Series [10] addresses T3, Proteinase-activated receptor 2 (Homo sapiens, UniProt P55085).
T3 sequence (P55085 whole entry): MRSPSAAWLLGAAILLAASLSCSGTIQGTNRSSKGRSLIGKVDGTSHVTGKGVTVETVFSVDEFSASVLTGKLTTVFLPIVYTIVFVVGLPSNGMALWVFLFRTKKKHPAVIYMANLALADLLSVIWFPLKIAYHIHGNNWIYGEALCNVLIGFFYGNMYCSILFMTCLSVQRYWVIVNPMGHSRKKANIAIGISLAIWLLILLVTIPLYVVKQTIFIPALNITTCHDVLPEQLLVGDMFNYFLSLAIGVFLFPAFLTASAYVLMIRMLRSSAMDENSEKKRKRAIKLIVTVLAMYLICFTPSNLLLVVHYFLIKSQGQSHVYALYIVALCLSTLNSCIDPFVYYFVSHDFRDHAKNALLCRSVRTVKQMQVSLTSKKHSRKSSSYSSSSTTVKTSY
The experiment in a line: Antagonist activity at PAR2 (unknown origin) expressed in human 1321N1 cells. The format is cell-based.

The next series has as its target Autotaxin (Homo sapiens, UniProt Q13822). The experiment in a line: Inhibition of ATX (unknown origin).
The target of a further series is Albumin (Homo sapiens, UniProt P02768). The experiment in a line: Binding affinity to human serum albumin by fluorescence polarization assay.
Series [11] can be described thus: Solubility of the compound. The format is physicochemical.
Series [12] addresses Mitogen-activated protein kinase 8 (Homo sapiens, UniProt P45983). The experiment in a line: Binding affinity to JNK1 (unknown origin) assessed as dissociation constant.
A further series concerns Bacillus subtilis. As to the kind of experiment: Antibacterial activity against Bacillus subtilis ATCC 23857 assessed as bacterial growth inhibition incubated for 16 hrs by broth dilution assay. The format is functional.
A further series deals with Escherichia coli. As to the kind of experiment: Antibacterial activity against Escherichia coli ATCC 25922 assessed as bacterial growth inhibition measured after 16 hrs by broth dilution assay. The format is functional. For orientation: Dilution methods test growth across graded concentrations, often in twofold steps.

Values after ≈ are worked out from the molar mass of the structure shown.

Chain of Mitogen-activated protein kinase 10 (P53779 whole entry): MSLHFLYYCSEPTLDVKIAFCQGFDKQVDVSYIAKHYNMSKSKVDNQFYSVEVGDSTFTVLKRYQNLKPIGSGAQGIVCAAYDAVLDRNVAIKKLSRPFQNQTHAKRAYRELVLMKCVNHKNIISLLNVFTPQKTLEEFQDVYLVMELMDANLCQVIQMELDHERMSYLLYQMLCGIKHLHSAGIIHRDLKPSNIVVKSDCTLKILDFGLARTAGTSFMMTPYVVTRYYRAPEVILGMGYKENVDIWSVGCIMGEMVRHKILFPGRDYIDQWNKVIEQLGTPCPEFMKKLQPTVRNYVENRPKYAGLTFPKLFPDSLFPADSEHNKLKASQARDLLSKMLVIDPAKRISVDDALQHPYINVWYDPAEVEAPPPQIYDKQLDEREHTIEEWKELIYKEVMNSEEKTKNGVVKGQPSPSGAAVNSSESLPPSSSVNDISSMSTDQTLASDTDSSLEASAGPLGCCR
Chain of CREB-binding protein (Q92793 whole entry): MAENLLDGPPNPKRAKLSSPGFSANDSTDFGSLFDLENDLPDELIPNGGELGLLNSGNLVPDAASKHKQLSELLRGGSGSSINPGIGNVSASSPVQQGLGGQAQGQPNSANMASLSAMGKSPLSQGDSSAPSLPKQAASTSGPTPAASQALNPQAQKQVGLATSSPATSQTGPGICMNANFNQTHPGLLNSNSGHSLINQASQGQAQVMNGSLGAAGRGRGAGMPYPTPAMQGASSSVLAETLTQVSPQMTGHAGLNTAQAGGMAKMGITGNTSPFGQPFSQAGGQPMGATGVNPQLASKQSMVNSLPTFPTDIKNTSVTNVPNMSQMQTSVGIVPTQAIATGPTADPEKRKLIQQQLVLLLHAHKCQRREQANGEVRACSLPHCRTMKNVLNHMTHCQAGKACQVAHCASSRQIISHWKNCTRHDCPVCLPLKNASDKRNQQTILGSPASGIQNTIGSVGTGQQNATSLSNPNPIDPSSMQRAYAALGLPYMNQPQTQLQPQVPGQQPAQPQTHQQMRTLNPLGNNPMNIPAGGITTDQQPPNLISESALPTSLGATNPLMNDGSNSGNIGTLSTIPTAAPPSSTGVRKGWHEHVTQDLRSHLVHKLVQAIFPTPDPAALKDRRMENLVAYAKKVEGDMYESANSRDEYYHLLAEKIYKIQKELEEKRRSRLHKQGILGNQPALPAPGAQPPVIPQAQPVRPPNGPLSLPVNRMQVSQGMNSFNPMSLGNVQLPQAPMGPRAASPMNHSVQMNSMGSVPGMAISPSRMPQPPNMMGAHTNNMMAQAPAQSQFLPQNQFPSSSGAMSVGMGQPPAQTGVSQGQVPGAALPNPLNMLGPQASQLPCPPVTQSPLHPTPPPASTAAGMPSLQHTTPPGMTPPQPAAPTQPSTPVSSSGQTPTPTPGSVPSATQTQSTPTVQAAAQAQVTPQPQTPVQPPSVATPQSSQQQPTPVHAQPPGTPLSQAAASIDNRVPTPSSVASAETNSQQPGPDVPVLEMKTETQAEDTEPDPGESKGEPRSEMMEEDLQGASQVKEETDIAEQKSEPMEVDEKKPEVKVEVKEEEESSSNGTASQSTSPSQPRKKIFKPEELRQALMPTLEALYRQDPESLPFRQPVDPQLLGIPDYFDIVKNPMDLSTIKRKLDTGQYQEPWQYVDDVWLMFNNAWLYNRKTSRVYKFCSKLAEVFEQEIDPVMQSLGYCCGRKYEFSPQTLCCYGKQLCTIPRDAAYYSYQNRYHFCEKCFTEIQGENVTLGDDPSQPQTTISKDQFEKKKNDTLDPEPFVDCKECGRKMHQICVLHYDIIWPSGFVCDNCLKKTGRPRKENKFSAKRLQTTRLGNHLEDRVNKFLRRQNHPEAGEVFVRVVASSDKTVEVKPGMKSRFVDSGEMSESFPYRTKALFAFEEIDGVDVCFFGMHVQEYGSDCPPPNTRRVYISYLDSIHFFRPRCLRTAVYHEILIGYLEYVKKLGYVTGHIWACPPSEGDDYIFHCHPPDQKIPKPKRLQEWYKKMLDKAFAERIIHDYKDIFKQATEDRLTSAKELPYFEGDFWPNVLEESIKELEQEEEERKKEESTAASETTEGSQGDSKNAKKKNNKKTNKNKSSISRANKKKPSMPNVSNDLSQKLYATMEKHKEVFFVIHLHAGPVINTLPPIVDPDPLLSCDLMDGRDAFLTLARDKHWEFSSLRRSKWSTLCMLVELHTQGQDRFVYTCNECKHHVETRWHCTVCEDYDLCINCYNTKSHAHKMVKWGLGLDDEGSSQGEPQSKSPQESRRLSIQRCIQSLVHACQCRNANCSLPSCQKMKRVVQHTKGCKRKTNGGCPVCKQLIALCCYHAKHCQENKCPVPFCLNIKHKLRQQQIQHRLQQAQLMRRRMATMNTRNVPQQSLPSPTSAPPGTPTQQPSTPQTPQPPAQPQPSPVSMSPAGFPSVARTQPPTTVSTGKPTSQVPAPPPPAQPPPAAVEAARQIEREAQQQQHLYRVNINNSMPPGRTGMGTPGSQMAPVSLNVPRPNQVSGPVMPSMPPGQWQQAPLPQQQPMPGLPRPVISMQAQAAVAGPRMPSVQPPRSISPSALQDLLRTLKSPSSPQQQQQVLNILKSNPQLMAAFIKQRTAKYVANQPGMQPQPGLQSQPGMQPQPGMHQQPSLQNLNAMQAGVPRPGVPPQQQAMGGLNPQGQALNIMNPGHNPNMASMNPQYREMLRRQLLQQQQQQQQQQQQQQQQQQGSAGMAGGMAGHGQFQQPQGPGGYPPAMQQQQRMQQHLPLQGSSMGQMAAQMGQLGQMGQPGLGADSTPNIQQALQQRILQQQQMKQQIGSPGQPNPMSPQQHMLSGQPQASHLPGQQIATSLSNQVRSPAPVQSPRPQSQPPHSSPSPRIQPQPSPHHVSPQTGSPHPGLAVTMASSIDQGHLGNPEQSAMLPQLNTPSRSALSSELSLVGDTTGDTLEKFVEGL
Chain of Albumin (P02768 whole entry): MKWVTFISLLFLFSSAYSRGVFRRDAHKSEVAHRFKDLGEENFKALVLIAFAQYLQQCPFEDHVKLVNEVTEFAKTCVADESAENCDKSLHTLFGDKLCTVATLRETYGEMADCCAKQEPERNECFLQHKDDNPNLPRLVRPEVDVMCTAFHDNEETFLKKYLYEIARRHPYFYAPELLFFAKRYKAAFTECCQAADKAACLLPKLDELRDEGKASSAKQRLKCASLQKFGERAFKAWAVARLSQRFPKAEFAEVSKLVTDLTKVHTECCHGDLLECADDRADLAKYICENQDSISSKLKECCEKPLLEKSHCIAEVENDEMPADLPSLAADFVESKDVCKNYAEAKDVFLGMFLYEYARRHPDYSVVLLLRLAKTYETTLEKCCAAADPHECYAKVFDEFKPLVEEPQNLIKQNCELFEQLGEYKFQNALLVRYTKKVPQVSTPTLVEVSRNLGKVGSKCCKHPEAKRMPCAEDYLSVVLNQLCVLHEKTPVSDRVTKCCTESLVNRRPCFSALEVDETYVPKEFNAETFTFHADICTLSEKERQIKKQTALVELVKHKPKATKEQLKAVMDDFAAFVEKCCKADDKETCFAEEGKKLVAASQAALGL
Chain of Mitogen-activated protein kinase 8 (P45983 whole entry): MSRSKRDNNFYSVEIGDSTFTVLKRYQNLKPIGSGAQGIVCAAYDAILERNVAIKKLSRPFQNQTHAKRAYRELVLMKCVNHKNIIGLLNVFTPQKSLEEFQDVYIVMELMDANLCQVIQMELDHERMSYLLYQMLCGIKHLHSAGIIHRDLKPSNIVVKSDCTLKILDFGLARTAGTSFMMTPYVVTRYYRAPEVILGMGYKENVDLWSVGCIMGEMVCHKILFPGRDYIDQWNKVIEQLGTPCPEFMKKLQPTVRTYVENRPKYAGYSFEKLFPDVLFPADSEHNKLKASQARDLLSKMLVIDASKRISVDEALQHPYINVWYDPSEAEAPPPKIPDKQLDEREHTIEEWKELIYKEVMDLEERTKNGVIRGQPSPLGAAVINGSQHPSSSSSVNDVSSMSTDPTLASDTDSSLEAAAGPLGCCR

The Ki is the dissociation constant of the complex between target and ligand, obtained from inhibition or displacement. `CNC(=O)[C@@H]1CN(C(=O)[C@@H](Cc2ccccc2CNC(=N)N)NC(=O)N(C)C2CCOc3ccccc32)C[C@H]1c1ccc(OC)cc1` (stereo partly specified): the Ki on Prothrombin came out at 1 nM.

Broadly, the Kd is a measure of binding affinity in units of concentration. Consider `NC(=O)c1coc(CN(Cc2ccc3c(c2)OCO3)C(=O)c2coc(CN(Cc3ccc4c(c3)OCO4)C(=O)c3ncc(CCl)o3)n2)n1`, for which, in series [1], the Kd was 30 nM.

Usually IC50 stands for the midpoint of a concentration-inhibition curve. As for `CNC(=O)[C@@H]1[C@@H](c2ccc(-c3ccc(S(N)(=O)=O)cc3)cc2)CN1Cc1ccc(O)c2ncccc12`, the IC50 on Carbonic anhydrase 9 was 20.1 nM.

With `Cn1c(-c2c[nH]c3cc(C#N)ccc23)nc2ccc(C(=O)N3CCOC(c4ccccc4)C3CO)cc21` (stereo unspecified), in series [2], the Ki was 17.5 nM.

`O=C(c1ccccc1)N1CCC2(CCCN(c3ncc(-c4ccccc4)c(-c4ccc(Cl)cc4)n3)C2)CC1` displayed an IC50 in series [3] of 45.8 nM.

For `Cc1cn(CC(=O)N[C@@H](CCCCn2cc(-c3ccncc3F)nn2)C(N)=O)c(=O)[nH]c1=O`, in series [4], the Kd was found to be 15 nM.

Regarding `C[C@@H]1CC(=O)Cc2cccc(C(=O)NCCNC(=O)CSC(=S)c3ccccc3)c2N1`, the IC50 at CREB-binding protein worked out at 17000 nM.

Compound `CCOc1ccccc1N1CCN(c2ncnc(N3CCC(S(=O)(=O)O)CC3)n2)CC1` gave a Ki in [5] of 260 nM.

`O=C(c1ccc2[nH]ccc2c1)N1CCC2(CCCN(c3ncc(-c4ccccc4)c(-c4ccc(Cl)cc4)n3)C2)CC1`: it took 42.1 nM to reach half-maximal inhibition in series [3] (IC50).

`CNC(=O)CN(Cc1ccc(OCC(=O)NCc2nc3ccccc3c(=O)[nH]2)c(Cl)c1)Cc1cccn1C`: the Kd on Quadruplex DNA [6] is 1050 nM.

`COc1ccc(Nc2nc(NCCc3ccccc3F)nc(Nc3ccc4ncccc4c3)n2)cc1OC` showed an IC50 in series [7] of 2100 nM.

In the case of `CCn1c(-c2ccccc2-c2ccc(C)cc2C)nc2cc(C(=O)NC)ccc21`, the Ki in series [8] came out at 1.2 nM.

In the case of `CCOc1ccccc1N1CCN(c2ncnc(N3CCC(C(=O)O)CC3)n2)CC1`, in series [5], the Ki amounted to 530 nM.

On to `Cc1cnccc1N1CCN(c2nccc3c2nc(-c2c[nH]c4ccncc24)n3C)CC1`, for which the Ki on Quadruplex DNA [9] turned out to be 328 nM.

Compound `CC(C1CCCCC1)n1c(-c2cc3c(cc2Br)OCO3)nc2cc(C(=O)Nc3ccc(C#N)cc3)ccc21` (stereo unspecified) registered an IC50 in [10] of 23 nM.

`NC(=O)CN1CN(c2ccccc2)C2(CCN(C(=O)CCc3ccc(Cl)cc3Cl)CC2)C1=O`: on Autotaxin, the IC50 stood at 2800 nM.

In general, solubility refers to how much of the substance goes into solution per volume. On to `NCCOCCOCCNC(=O)c1cccc(NC(=O)OC2CCN(C(=O)c3ccc(-c4nc5ccccc5[nH]4)cc3)CC2)c1`, for which the Ki at Albumin was determined as 49.7 nM. Moreover, the solubility in series [11] turned out to be 54 µg/mL (≈ 87.8 µM).

For the compound `O=C(/C=C/C(=O)c1ccc(F)c(F)c1)NCCOCCOCCNC(=O)c1cccnc1Oc1ccccc1`, the dissociation constant (Kd) in series [12] worked out at 1000 nM.

What is called MIC is the smallest concentration in the dilution series that meets the test's criterion for growth inhibition. On to `O=C(O)c1cn(C2CC2)c2nc(N3CCNCC3)c(F)cc2c1=O`, for which the MIC in the series on Bacillus subtilis stood at 0.063 µg/mL (≈ 0.19 µM); in the series on Escherichia coli it was 0.016 µg/mL (≈ 0.0481 µM).
